Reference: patent US11279768B1, “Anti-cancer antibodies, combination therapies, and uses thereof” (PRECISION BIOLOGICS, INC., priority 2015, dated 2022)

B1: NEO-101: Chimeric NPC-1 antibody, engineered in CHO-DG44 production cell clone 4B7; targets a variant of MUC5AC (protein)
light: MDFQVQIFSFLLISASVILSRGQVVLTQSPVIMSASPGEKVTMTCSASSSISYMYWYQQKPGTSPKRWIYDTSKLASGVPARFSGSGSGTSYSLTISNMEAGDAATYYCHQRDSYPWTFGGGTNLEIKRADAAPTVSIFPPSSEQLTSGGASVVCFLNNFYPKDINVKWKIDGSERQNGVLNSWTDQDSKDSTYSMSSTLTLTKDEYERHNSYTCEATHKTSTSPIVKSFNRNEC
heavy: MAVLALLLCLVTFPSCVLSQVQLKESGPDLVAPSQSLSITCTVSGFSLSKFGVNWVRQPPGKGLEWLGVIWGDGSTSYNSGLISRLSISKENSKSQVFLKLNSLQADDTATYYCVKPGGDYWGHGTSVTVSSAKTTPPSVYPLAPGSAAQTNSMVTLGCLVKGYFPEPVTVTWNSGSLSSGVHTFPAVLQSDLYTLSSSVTVPSSTWPSETVTCNVAHPASSTKVDKKIVPRDCGCKPCICTVPEVSSVFIFPPKPKDVLTITLTPKVTCVVVDISKDDPEVQFSWFVDDVEVHTAQTQPREEQFNSTFRSVSELPIMHQDWLNGKEFKCRVNSAAFPAPIEKTISKTKGRPKAPQVYTIPPPKEQMAKDKVSLTCMITDFFPEDITVEWQWNGQPAENYKNTQPIMDTDGSYFVYSKLNVQKSNWEAGNTFTCSVLHEGLHNHHTEKSLSHSPGK
modifications: NPC-1 antibody light chain; (46)..(55) CDR1; (71)..(77) CDR2; (110)..(118) CDR3; NPC-1 antibody heavy chain; (49)..(54) CDR1; (69)..(84) CDR2; (114)..(121) CDR3
notes: Chimeric NPC-1 antibody, engineered in CHO-DG44 production cell clone 4B7; targets a variant of MUC5AC

Columns and labels:
[1] = system: colorectal adenocarcinoma cells; experiment: Antigen expression by Flow Cytometry, colorectal adenocarcinoma cell lines; assay type: binding, Human; conditions: multiple colorectal adenocarcinoma cell lines; primary antibody 10 ug/mL
Method: (§1) FIG. 1. NEO-101, NEO-201 and NEO-301 Antigen Expression by Human Normal and Cancer Cell Lines. NEO-101, NEO-201 and NEO-301 specific antigen expression in various cell lines were detected by Flow Cytometry. Viable cell suspensions were incubated with primary antibody NEO-101, NEO-201 and NEO-301 separately at 10 ug/mL. Human IgG (10 ug/mL) was used as negative control. Goat anti-human IgG (Fc)-phycoerythrin conjugate was used for primary antibody detection; 7-ADD was used for excluding dead cells from analysis. The staining was measured by Flow Cytometry (Guava instrument, Millipore). Median fluorescent intensity (MFI) and % of stained cells was used for determining presence of specific antigen on each cell line.
(§2) Antigen expression in cell lines of various origins were detected by Flow Cytometry. Viable cell suspensions were incubated with primary antibody NEO-101, NEO-201 and NEO-301 separately at 10 ug/mL. Human IgG (10 ug/mL) was used as negative control. Goat anti-human IgG (Fc)-phycoerythrin conjugate was used for primary antibody detection; 7-ADD was used for excluding dead cells from analysis. The staining was measured by Flow Cytometry (Guava instrument, Millipore). Median fluorescent intensity (MFI) and % of stained cells was used for determining presence of specific antigen on each cell line. […]

[2] = system: pancreatic adenocarcinoma cells; experiment: Antigen expression by Flow Cytometry, pancreatic adenocarcinoma cell lines; assay type: binding, Human; conditions: primary antibody 10 ug/mL
Method: as §1, §2

[3] = system: lung adenocarcinoma cells; experiment: Antigen expression by Flow Cytometry, lung adenocarcinoma cell lines; assay type: binding, Human; conditions: multiple lung adenocarcinoma cell lines; primary antibody 10 ug/mL
Method: as §1, §2

[4] = system: lung squamous carcinoma cells; experiment: Antigen expression by Flow Cytometry, lung squamous cell carcinoma cell lines; assay type: binding, Human; conditions: multiple lung squamous cell carcinoma cell lines; primary antibody 10 ug/mL
Method: as §1, §2

[5] = system: colon cancer samples; experiment: Immunohistochemistry, cancer tissue microarray, colon; assay type: binding
Text: (§3) FIG. 2. Immunohistochemistry results from cancer tissue arrays. Immunohistochemistry method (IHC) was used for determining the presence of NEO-101/102, NEO-201 and NEO-301 antigens on paraffin microarrays and tissues. These primary antibodies (NEO-101/NEO-102, NEO-201 and NEO-301) were biotinylated prior to use. Paraffin tissue Microarrays and slides of tissues were reacted with the primary Ab after inactivating endogenous peroxidase and blocking the slides. Staining was detected with streptavidin-horseradish peroxidase conjugate and visualized with chromogen. Biotinylated human IgG1 was used as negative control and mouse anti-human cytokeratin monoclonal antibody was used as positive control. Antibody staining is measured as % and intensity of tumor epithelial cells and luminal secretion within the whole tissue section.
(§4) Immunohistochemistry (IHC) was used for determining the presence of NEO-101/102, NEO-201 and NEO-301 antigens on paraffin microarrays and tissues. These primary antibodies (NEO-101/NEO-102, NEO-201 and NEO-301) were biotinylated prior to use. […] Staining was detected with streptavidin-horseradish peroxidase conjugate and visualized with chromogen. […] Antibody staining was measured as % and intensity of tumor epithelial cells and luminal secretion within the whole tissue section. […]

[6] = system: pancreatic cancer samples; experiment: Immunohistochemistry, cancer tissue microarray, pancreas; assay type: binding
Text: as §3, §4

[7] = system: lung cancer samples; experiment: Immunohistochemistry, cancer tissue microarray, lung; assay type: binding
Text: as §3, §4

[8] = system: uterus cancer samples; experiment: Immunohistochemistry, cancer tissue microarray, uterus; assay type: binding
Text: as §3, §4

[9] = system: skin cancer samples; experiment: Immunohistochemistry, cancer tissue microarray, skin; assay type: binding
Text: as §3, §4

[10] = system: colon cancer samples; experiment: Immunohistochemistry, paraffin tissue sections, colon; assay type: binding
Text: as §3, §4

[11] = system: pancreatic cancer samples; experiment: Immunohistochemistry, paraffin tissue sections, pancreas; assay type: binding
Text: as §3, §4

[12] = system: lung cancer samples; experiment: Immunohistochemistry, paraffin tissue sections, lung; assay type: binding
Text: as §3, §4

[13] = system: stomach cancer samples; experiment: Immunohistochemistry, cancer tissue microarray, stomach; assay type: binding
Text: as §3, §4

Row | Molecule | antigen expression detected by Flow Cytometry [1] | antigen expression detected by Flow Cytometry [2] | antigen expression detected by Flow Cytometry [3] | antigen expression detected by Flow Cytometry [4] | cancer samples positive for the antigen (IHC) [5] | cancer samples positive for the antigen (IHC) [6] | cancer samples positive for the antigen (IHC) [7] | cancer samples positive for the antigen (IHC) [8] | cancer samples positive for the antigen (IHC) [9] | cancer samples positive for the antigen (IHC) [10] | cancer samples positive for the antigen (IHC) [11] | cancer samples positive for the antigen (IHC) [12] | cancer samples positive for the antigen (IHC) [13]
1 | NEO-201: Humanized 16C3 antibody; binds epitopes in CEACAM5 and CEACAM6 | detected | detected | detected | detected | 85% | 86% | 61% | 51% | 16% | 94% | 83% | 90% | –
2 | B1 | detected | detected | – | – | 61% | 31% | – | 41% | – | 87% | 82% | 67% | 30%
